Data set [1] is filed under the species Homo sapiens. Briefly: Selectivity ratio of IC50 for human recombinant MAO-A to IC50 for human recombinant MAO-B.
The target in data set [2] is T1, Amine oxidase [flavin-containing] B (Homo sapiens, UniProt P27338).
T1 sequence (P27338 whole entry): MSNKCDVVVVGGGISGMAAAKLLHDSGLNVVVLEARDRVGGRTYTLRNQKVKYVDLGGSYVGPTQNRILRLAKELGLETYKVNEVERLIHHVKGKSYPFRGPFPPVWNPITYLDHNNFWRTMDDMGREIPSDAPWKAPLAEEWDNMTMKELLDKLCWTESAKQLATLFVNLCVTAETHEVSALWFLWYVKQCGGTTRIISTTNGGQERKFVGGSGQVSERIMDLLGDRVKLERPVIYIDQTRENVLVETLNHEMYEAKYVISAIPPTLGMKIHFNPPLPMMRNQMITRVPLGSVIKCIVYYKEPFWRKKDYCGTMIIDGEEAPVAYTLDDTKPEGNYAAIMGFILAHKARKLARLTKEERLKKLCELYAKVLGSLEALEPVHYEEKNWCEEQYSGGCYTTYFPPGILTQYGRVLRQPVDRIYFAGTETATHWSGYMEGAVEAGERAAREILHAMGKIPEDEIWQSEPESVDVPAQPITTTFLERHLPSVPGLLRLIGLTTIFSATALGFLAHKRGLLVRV
Briefly: Binding affinity to MAO-B in human brain at 4 MBq/200 ml after 90 mins by autoradiography analysis in presence of 10 uM pirlindole. The note with it: 1.5 h.

Data set [3] concerns the target T2, Amine oxidase [flavin-containing] A (Homo sapiens, UniProt P21397).
T2 sequence (P21397 whole entry): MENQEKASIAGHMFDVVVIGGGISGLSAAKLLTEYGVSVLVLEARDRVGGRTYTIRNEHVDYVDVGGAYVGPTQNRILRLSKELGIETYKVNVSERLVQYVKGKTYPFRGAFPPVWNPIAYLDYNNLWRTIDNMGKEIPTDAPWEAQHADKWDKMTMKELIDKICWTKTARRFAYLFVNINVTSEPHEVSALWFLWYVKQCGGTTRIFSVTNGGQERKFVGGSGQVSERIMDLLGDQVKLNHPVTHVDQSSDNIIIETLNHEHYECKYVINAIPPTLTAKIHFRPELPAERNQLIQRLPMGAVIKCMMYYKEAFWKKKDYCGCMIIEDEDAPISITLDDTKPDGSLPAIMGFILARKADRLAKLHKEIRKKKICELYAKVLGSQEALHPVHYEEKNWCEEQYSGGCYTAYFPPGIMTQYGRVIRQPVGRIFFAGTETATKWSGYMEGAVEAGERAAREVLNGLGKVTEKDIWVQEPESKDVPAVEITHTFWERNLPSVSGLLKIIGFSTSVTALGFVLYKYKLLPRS
Nature of the data set: Inhibition of human recombinant MAO-A expressed in insect cells assessed as kynuramine hydrobromide oxidation after 20 mins by spectrophotometric analysis.

Data set [4] relates to Plasma. Briefly: Drug metabolism in cynomolgus monkey plasma assessed as formation of [18F]fluoroaminoindan metabolite at 163 Mbq, iv by HPLC analysis in presence of non-radioactive compound. Type of data set: ADME, organism-based, Macaca fascicularis. The note with it: in vivo.
Data set [5] can be described thus: Drug uptake in cynomolgus monkey striatum at 163 MBq, iv measured up to 120 mins. The class given is ADME, organism-based, Macaca fascicularis. The note with it: in vivo, 2 h.
Data set [6] addresses T1, Amine oxidase [flavin-containing] B. Briefly: Binding affinity to MAO-B in human brain hippocampus region at 4 MBq/200 ml after 90 mins by autoradiography analysis. To be noted: 1.5 h. Type of data set: tissue-based.
Data set [7] concerns Plasma. Nature of the data set: Metabolic stability in cynomolgus monkey plasma assessed as radioactivity remaining at 163 Mbq, iv measured after 120 mins by HPLC analysis. The class given is ADME, organism-based, Macaca fascicularis. The note with it: in vivo, 2 h.
Data set [8] addresses T1, Amine oxidase [flavin-containing] B. Nature of the data set: Inhibition of human recombinant MAO-B expressed in insect cells assessed as kynuramine hydrobromide oxidation after 20 mins by spectrophotometric analysis. Type of data set: cell-based.
The nature of data set [9]: Drug uptake in cynomolgus monkey cerebellum at 163 MBq, iv measured up to 120 mins. The class given is ADME, organism-based, Macaca fascicularis. To be noted: in vivo, 2 h.
The subject of data set [10] is Brain. Nature of the data set: Drug uptake in cynomolgus monkey brain at 163 MBq, iv measured after wash out. Type of data set: ADME, organism-based, Macaca fascicularis. To be noted: in vivo.
Data set [11] addresses T1, Amine oxidase [flavin-containing] B. Briefly: Binding affinity to MAO-B in human brain at 4 MBq/200 ml after 90 mins by autoradiography analysis in presence of 10 uM rasagiline. The note with it: 1.5 h.
Data set [12] deals with Plasma. Briefly: Drug metabolism in cynomolgus monkey plasma assessed as [18F]a metabolite retention time at 163 Mbq, iv measured by HPLC analysis. The class given is ADME, organism-based, Macaca fascicularis. To be noted: in vivo.
For data set [13], the target named is T1, Amine oxidase [flavin-containing] B. Briefly: Binding affinity to MAO-B in human brain at 4 MBq/200 ml after 90 mins by autoradiography analysis in presence of 10 uM L-deprenyl. The note with it: 1.5 h.
Data set [14] deals with Brain. Briefly: Drug uptake in cynomolgus monkey brain at 163 MBq, iv after 4 mins. The class given is ADME, organism-based, Macaca fascicularis. The note with it: in vivo.
Data set [15] addresses T1, Amine oxidase [flavin-containing] B. Briefly: Binding affinity to MAO-B in human brain thalamus region at 4 MBq/200 ml after 90 mins by autoradiography analysis. Type of data set: tissue-based. To be noted: 1.5 h.
For data set [16], the system named is Plasma. Nature of the data set: Drug metabolism in cynomolgus monkey plasma assessed as [18F]fluoroaminoindan metabolite retention time at 163 Mbq, iv measured by HPLC analysis. The class given is ADME, organism-based, Macaca fascicularis. The note with it: in vivo.
Data set [17] has as its system Thalamus. Nature of the data set: Drug uptake in cynomolgus monkey thalamus at 163 MBq, iv measured up to 120 mins. The note with it: in vivo, 2 h. Type of data set: ADME, organism-based, Macaca fascicularis.
In data set [18] the target is T1, Amine oxidase [flavin-containing] B. Briefly: Binding affinity to MAO-B in human brain external globus pallidus region at 4 MBq/200 ml after 90 mins by autoradiography analysis. Type of data set: tissue-based. To be noted: 1.5 h.
Data set [19] has as its system Plasma. Nature of the data set: Drug metabolism in cynomolgus monkey plasma assessed as [18F]b metabolite retention time at 163 Mbq, iv measured by HPLC analysis. The note with it: in vivo. Type of data set: ADME, organism-based, Macaca fascicularis.
The nature of data set [20]: Chemical stability of the compound in PBS assessed as compound remaining at pH 7.4 after 180 mins. The class given is physicochemical. The note with it: read-out: Stability.
The test system of data set [21] is Plasma. Nature of the data set: Metabolic stability in cynomolgus monkey plasma assessed as radioactivity remaining at 163 Mbq, iv measured after 45 mins by HPLC analysis. The class given is ADME, organism-based, Macaca fascicularis. The note with it: in vivo, 0.75 h.
Data set [22] concerns the target T1, Amine oxidase [flavin-containing] B. Briefly: Binding affinity to MAO-B in human brain caudate nucleus region at 4 MBq/200 ml after 90 mins by autoradiography analysis. To be noted: 1.5 h.
The nature of data set [23]: Drug uptake in cynomolgus monkey cortex at 163 MBq, iv measured up to 120 mins. Type of data set: ADME, organism-based, Macaca fascicularis. The note with it: in vivo, 2 h.
In data set [24] the target is T1, Amine oxidase [flavin-containing] B. Nature of the data set: Binding affinity to MAO-B in human brain putamen region at 4 MBq/200 ml after 90 mins by autoradiography analysis. To be noted: 1.5 h.

From ChEMBL document CHEMBL2021868, “Synthesis and evaluation of [¹⁸F]fluororasagiline, a novel positron emission tomography (PET) radioligand for monoamine oxidase B (MAO-B)” (Bioorg Med Chem, 2012) come the findings set out here.

In general, IC50 refers to the concentration that inhibits the measured activity by half.

`C#CCN[C@H]1c2ccccc2C[C@@H]1F`: in [1], the Ratio IC50 came to 84.

In the case of `C#CCN[C@H]1c2ccccc2C[C@@H]1[18F]` [[18F]FLUORORASAGILINE], the Activity result in [2] is recorded as “Active”; in data set [6], “Active”; in data set [11], “Not Active”; in [13] it was “Not Active”; in [15] it was “Active”; in data set [18], “Active”. Besides, the outcome in [22] and in [24] was Active. In addition, the values for the IC50 in data set [3] and in data set [8] were 2.3 µM and 0.027 µM, respectively. Besides, the Drug metabolism result in data set [4] was “Active”. Also, the Drug uptake result is on record as “Active” in data set [5]; “Not Active” in data set [9]; “Active” in data set [10]; “Active” in data set [17]; “Not Active” in [23]. Moreover, the figures for the Stability in [7] and in [21] were 20% and 50%, respectively. The figures for the Time in data set [12], in data set [16] and in data set [19] were 2.7 min, 4.6 min and 9.2 min, respectively. In addition, the SUV in data set [14] is 250%. The remaining at 3 h in data set [20] was over 97%.
